Test system: HL-60, KG-1, MonoMac-1 and Kasumi-1 AML cell lines
Experiment: Cell viability of AML cell lines by flow cytometry (7-AAD/Hoechst, volumetric count)
Format: cell-based, human
Settings: subtype-specific 5HTR antagonists, 0.1, 1 and 10 μM, 72 h
Experimental: FIG. 1. […] 10^6 HL-60, KG-1, MonoMac-1 and Kasumi-1 cells per mL in complete RPMI media were treated with 0.1, 1 and 10 μM Apomorphine for 72 h. […] Cells were stained with 7-aminoactinomycin D (7-AAD, CAS no. 7240-37-1) and Hoechst 33342 (CAS no. 23491-52-3) and analyzed by flow cytometry. […] Cell number was calculated by volumetric count. A. The mean (symbol) for each AML cell line and standard deviation (error bars) from 6 different biological replicates are represented. B. The average corresponding to the four different AML cell lines is represented. *p<0.05.
FIG. 2. […] Cell number was calculated by volumetric count. A. The mean (symbol) for each AML cell line and standard deviation (error bars) from 6 different biological replicates are represented. B. AML cell lines were treated with 10 μM Apomorphine or Methiothepin in the presence or absence of 5-CT or 5-HT. *p<0.05. Apo: apomorphine; Methio: methiothepine.
In order to test the anti-leukaemic effect of 5HTR antagonists, HL-60 (Collins, Gallo et al. Nature. 1977; 270(5635):347-9), MonoMac-1 (Steube, Teepe et al. Leuk Res. 1997; 21(4):327-35), KG-1 (Koeffler and Golde. Science. 1978; 200(4346):1153-4) and Kasumi-1 (Asou, Tashiro et al. Blood. 1991; 77(9):2031-6) AML (Acute Myeloid Leukaemia) cell lines were treated with the broad 5HTR antagonist Apomorphine (CAS no. 314-19-2) at different doses for 72 h. One million cells per mL were seeded in complete RPMI media supplemented with 10% fetal bovine serum in a 96-well plate. The concentration used for the Apomorphine treatment was 0.1, 1 and 10 μM.
The human 5HTR family is composed by 7 subtypes (from 1 to 7) of receptors […]. HL-60, KG-1, MonoMac-1 and Kasumi-1 AML cell lines were incubated with subtype-specific 5HTR antagonists: Apomorphine (type 1, 2 and 5), Methiothepin (type 1 and 2) (CAS no. 74611-28-2), Amperozide (type 2) (CAS no. 75558-90-6), GR113808 (type 4) (CAS no. 144625-51-4). 72 h after treatment, cell viability was determined by flow cytometry. Cells were stained with 7-AAD (CAS no. 7240-37-1) and Hoechst 33342 (CAS no. 23491-52-3). Viability cells were identified by 7-AAD staining exclusion and the presence of Hoechst positive stain. Cell counts were measured by volume. […] In fact, the anti-leukaemic effect was reversed in the presence of a competitive agonist such as the natural ligand 5-HT (CAS no. 153-98-0) or 5-CT (CAS no. 74885-72-6).

Compound | cell death on AML cell lines
CCNC(=O)N1CCN(CCCC(c2ccc(F)cc2)c2ccc(F)cc2)CC1 [Amperozide, 4-[4,4-bis(4-fluorophenyl)butyl]-N-ethylpiperazine-1-carboxamide] | induced cell death
Cn1cc(C(=O)OCC2CCN(CCNS(C)(=O)=O)CC2)c2ccccc21 [GR113808] | Only Apomorphine, Methiothepin and Amperozide induced cell death

From patent US11337984B2, “Methods for treating, diagnosing and prognosing a haematological malignancy” (Institut de Recerca Contra La Leucèmia Josep Carreras, priority 2014, dated 2022)
